According to PMC10606834, “Is the Neuropeptide PEN a Ligand of GPR83?” (International Journal of Molecular Sciences, 2023):

What was measured:
[1] = test system: GPR83 and deletion variant GPR83del (HEK293 clones; wild-type HEK293 as comparison); assay: Intracellular calcium mobilization, HEK293 cells; type: cell-based, human
Description: (§1) As activation of many GPCRs is coupled to calcium mobilization from intracellular stores, GPR83 was probed for ligand-dependent calcium release. Wild-type HEK293 cells and HEK293 clones overexpressing either full-length GPR83 or the N-terminal deletion variant GPR83del were exposed to buffer or one of two independent synthesis batches (PEN #1 and PEN #2) of the neuropeptide PEN, while calcium indicator fluorescence was recorded. […] Calcium release was also tested in a second cell line, osteosarcoma U2OS cells, using various stably expressing clones. […] Therefore, HEK293 cells transfected with Gα16 were employed to investigate a potential GPR83-dependent calcium mobilization with PEN. […] A number of GPCRs show ligand-independent basal calcium activity. However, in an experiment comparing basal calcium levels in wild-type HEK293 cells and in HEK293 clones overexpressing four different variants of GPR83, they were not found to be different (Figure 2D).
Figure 2 Investigation of ligand-dependent and ligand-independent intracellular calcium mobilization. (A) Wild-type HEK293 cells and HEK293 cell clones overexpressing either GPR83 or the deletion variant GPR83del were incubated with either buffer or the specified ligand (10 µM PEN or co mix = 100 µM carbachol, 100 µM ATP, 40 µM dimaprit, or 50 µM ionomycin). (B) Calcium indicator fluorescence intensity traces over 60 s of various U2OS cell clones overexpressing untagged or HA-tagged GPR83 or the deletion variant GPR83del before and after the addition of buffer or ligand (co mix as in (A) or 50 µM ionomycin or 10 µM PEN). […]
Cells were seeded at 50,000 cells/well in a poly-D-lysine coated 96-well black well/clear bottom plate (BD Falcon, Franklin Lakes, NJ, USA) and cultured overnight. […] Fluorescence was recorded with the fluorescence imaging plate reader CellLux (Perkin Elmer, Waltham, MA, USA) simultaneously in all wells at an excitation wavelength of 488 nm and emission wavelength of 510 nm in 1.5 s intervals over a period of 4 min. Fluorescence data were generated in duplicate, and experiments were repeated at least two times.

[2] = test system: GPR83; settings: cited from earlier work
Excerpt: G protein-coupled receptor 83 (GPR83), also termed glucocorticoid-induced receptor (GIR), GPR72, KIAA1540, or JP05, is a class A G protein-coupled receptor with predominant expression in the […] and proposed function in the regulation of food intake and in anxiety-like behavior [1, 2, 3]. […] A potential role of GPR83 in regulatory T cell development and function has not been confirmed. […] The present study was initiated to evaluate PEN as a ligand of GPR83. […] While one end of the peptide may be crucial for binding the receptor, an absolute requirement of both peptide termini to be free of another ...

[3] = test system: GPR83 and deletion variant GPR83del (untagged or HA-tagged, U2OS clones); assay: Intracellular calcium mobilization, U2OS cells; type: cell-based, human; settings: 10 µM PEN, controls co mix or 50 µM ionomycin, traces over 60 s, ligand added 10 s after start of recording, Fluo4-AM, duplicate, repeated at least two times
Description: as §1, with “However, in an experiment comparing basal calcium levels in wild-type HEK293 cells and in HEK293 clones overexpressing four different variants of GPR83, they were not found to be different (Figure 2D).” left out
Figure 2 Investigation of ligand-dependent and ligand-independent intracellular calcium mobilization. […] (B) Calcium indicator fluorescence intensity traces over 60 s of various U2OS cell clones overexpressing untagged or HA-tagged GPR83 or the deletion variant GPR83del before and after the addition of buffer or ligand (co mix as in (A) or 50 µM ionomycin or 10 µM PEN). […]
Cells were seeded at 50,000 cells/well in a poly-D-lysine coated 96-well black well/clear bottom plate (BD Falcon, Franklin Lakes, NJ, USA) and cultured overnight. […] Fluorescence data were generated in duplicate, and experiments were repeated at least two times.

Q: For “AADHDVGSELPPEGVLGALLRV [PEN, batch #1 synthesized, batch #2 purchased from Phoenix Pharmaceuticals]”, which calcium signal ([1]; 10 µM PEN, co mix = 100 µM carbachol, 100 µM ATP, 40 µM dimaprit, 50 µM ionomycin, HEK293 wild-type, GPR83 or GPR83del clones, Fluo4-AM fluorescence, compared with buffer, duplicate, repeated at least two times) is on record?
A: PEN did not

Q: And the “Ca2+ signal above background” value ([1]; two synthesis batches of PEN, confirmed in HEK293 and U2OS cells, full-length or truncated GPR83 (Figure 2A–C))?
A: none of two synthesis batches of PEN from different sources was found to yield a signal above background

Q: What about the “ligand for GPR83” value ([2]; 2016 proposal, ref [10]) of the same sequence?
A: serves as a distinct ligand for GPR83

Q: What about the “GPR83 ligand and agonist” value ([2]; comparative evaluation, multiple assay systems, ref [16]) of the same sequence?
A: not PEN

Q: What about the “activation of GPR83” value ([2]; independent reports from two other labs, ref [12],[13]) of the same sequence?
A: supported activation of GPR83 by PEN

Q: What about the “enhancement of calcium indicator fluorescence” value [3] of the same sequence?
A: PEN did not
